Data published in US20030044909A1, “Melatonin-receptor expression cells and thier uses” (JCR PHARMACEUTICALS Co., Ltd., priority 1997, published 2003).

Target: mel-1a receptor expressed in CHO cell (Homo sapiens, UniProt P48039)
Details: mel-1a/CHO cells; for increase in metabolic rate via the mel-1a receptor (responsiveness, specificity): cytosensor (FIG. 11)
Description: mel-1a/CHO cells were cultivated in advance in the DMEM medium containing 800 μg/ml G418 and 10% FBS, and mel-1a/CHO cells in the logarithmic growth phase were washed with PBS, treated with trypsin and diluted with the same medium to a concentration of 2.5×10^5/ml. 1 ml of cell suspension was seeded in each cell cup for cytosensor, and the cell cups were filled on the outside with 2 ml of the medium and then left on standing overnight udner th conditions of 5% CO2/37° C.
While paying attention not to cause air bubbles to mingle, a spacer was disposed on the bottom of each cell cup with use of sterile tweezers on the following day. When air bubbles were below the spacer, they were to be removed with a pipette. A capsule insert was placed in each cup, while preventing air bubbles from mingling, and the medium in the 1 ml portion was added from the top to thereby bury the cup in the medium, whereby it was to be ascertained that no air bubble had been drained or mingled into the spacer and insert.
Powdered low buffer RPM1 1640 medium (MDC) was dissolved in 1 liter of distilled water for tissue culture (Cosmo Bio), and the solution was adjusted to pH 7.4 and then suction-filtered through a 0.45 μm filter.
The Cyto software package of a personal computer was started up. A measuring medium was set in a ctyosensor, and fluid feeding system was switched for the measuring medium. The fluid inside the sensor chamber was aspirated out, and the measuring medium was placed in the 1.5 ml portion in to each cell, where a capsule cell prepared in advance was disposed while preventing air bubbles from mingling. The sensor chamber was connected to a cytosensor without causing air bubbles to mingle.
Each of the prepared samples was set on the cytosensor under the conditions where the metabolic rate was stabilized. Measurement with the cytosensor was performed by switching the fluid feeding from the measuring medium to the sample solution to stimulate the cells, then putting the fluid-feeding back to the measuring medium and measuring a change caused in metabolic rate of the cells, whereby stimulation with the sample was effected for 2 min. and subsequently the measuring medium continued to be fluid-fed until the metabolic rate was returned to the level determined prior to stimulation with the sample. […] Accordingly, stimulation with the sample was given at a regular interval of 40 min.
The cytosensor was designed to detect the release outside the cell of hydrogen ions, which is understood to reflect the metabolic activity of the cell, as a rate of change in extracellular hydrogen ion concentration. Upon binding of a ligand to the receptor expressed on the cell surface, intracellular signal transduction takes place, resulting in increased cellular metabolic activity to thereby release hydrogen ions outside the cell.

Chain of mel-1a receptor expressed in CHO cell (P48039 whole entry): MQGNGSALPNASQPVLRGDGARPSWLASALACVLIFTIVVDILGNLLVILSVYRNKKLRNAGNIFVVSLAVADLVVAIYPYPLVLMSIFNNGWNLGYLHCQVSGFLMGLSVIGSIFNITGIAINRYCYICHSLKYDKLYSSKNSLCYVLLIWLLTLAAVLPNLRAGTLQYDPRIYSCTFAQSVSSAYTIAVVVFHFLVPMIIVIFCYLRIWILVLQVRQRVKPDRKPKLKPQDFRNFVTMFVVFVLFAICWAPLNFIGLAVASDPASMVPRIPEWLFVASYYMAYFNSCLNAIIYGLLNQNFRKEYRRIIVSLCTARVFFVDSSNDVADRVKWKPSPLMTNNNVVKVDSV

Compound	increase in metabolic rate via the mel-1a receptor (responsiveness, specificity)	time for the metabolic activity to decline to the level prior to stimulation (after 2 min stimulation)
COc1ccc2[nH]cc(CCN)c2c1 [5-methoxytryptamine]	not to bring about an increase in metabolic rate	–
COc1ccc2[nH]cc(C[C@H](N)C(=O)O)c2c1 [5-methoxytryptophan]	not to bring about an increase in metabolic rate	–
CC(=O)NCCc1c[nH]c2ccc(O)cc12 [N-acetylserotonin]	not to bring about an increase in metabolic rate	–
COc1ccc2[nH]cc(CCNC(C)=O)c2c1 [melatonin]	responds specifically to melatonin alone	about 40 min
NCCc1c[nH]c2ccc(O)cc12 [serotonin]	not to bring about an increase in metabolic rate	–
N[C@@H](Cc1c[nH]c2ccccc12)C(=O)O [tryptophan]	not to bring about an increase in metabolic rate	–
